From ChEMBL document CHEMBL3045035, “Synthesis and insect antifeedant activity of stilbene derivatives against Brontispa longissima Larvae” (2013) come the findings set out here.

In assay [1] the test system is Brontispa longissima. Kind of assay: Antifeedant activity against third-instar larval stage of Brontispa longissima in […] assessed as decrease in leaf surface consumption treated for 30 secs prior to larval infestation measured after 48 hr by leaf-dipping method. Type of assay: functional.
Assay [2] relates to Brontispa longissima. Briefly: Ratio of compound AFC50 to combrestatin A-4 AFC50 for third-instar larval stage of Brontispa longissima. The format is functional.

On to `COc1ccc(/C=C(/C#N)c2cc(OC)c(OC)c(OC)c2)cc1O`, for which, in the assay with Brontispa longissima [1], the AFC50 turned out to be 0.431 mg/mL and the pAFC50 was determined as 0.36.

Consider `COc1ccc(/C=C(/C(=O)O)c2cc(OC)c(OC)c(OC)c2)cc1O`, for which, in the assay with Brontispa longissima [1], the AFC50 worked out at 1.461 mg/mL and the pAFC50 was -0.17. For the same molecule, the Ratio with Brontispa longissima [2] is 7.

For `COC(=O)/C(=C/c1ccc(OC)c(O)c1)c1cc(OC)c(OC)c(OC)c1`, in the assay with Brontispa longissima [1], the AFC50 was 1.453 mg/mL and the pAFC50 is reported as -0.16. Besides, the Ratio in the assay on Brontispa longissima [2] is listed as 7.

In the case of `O=[N+]([O-])c1ccc(/C=C\c2ccc(O)cc2)cc1`, in the assay with Brontispa longissima [1], the AFC50 was 1.185 mg/mL and the pAFC50 is on record as -0.07.

Regarding `COc1ccc(/C=C\c2ccc(O)cc2)cc1[N+](=O)[O-]`, in the assay on Brontispa longissima [1], the AFC50 amounted to 1.301 mg/mL and the pAFC50 is on record as -0.11.

As for `COc1ccc(/C=C\c2ccc(OC(C)=O)cc2)cc1OC(C)=O`, in the assay on Brontispa longissima [1], the AFC50 was 2.501 mg/mL and the pAFC50 is -0.4.

Consider `CC(=O)Oc1ccc(/C=C\c2ccc(OC(C)=O)c(OC(C)=O)c2)cc1`, for which, in the assay with Brontispa longissima [1], the AFC50 was determined as 0.64 mg/mL and the pAFC50 was 0.19.

As to `Oc1ccc(/C=C\c2ccc3c(c2)OCO3)cc1`, in the assay with Brontispa longissima [1], the AFC50 is 1.005 mg/mL and the pAFC50 was determined as 0.

Consider `COc1ccc(/C=C(/CO)c2cc(OC)c(OC)c(OC)c2)cc1O`, for which, in the assay on Brontispa longissima [1], the AFC50 was determined as 0.226 mg/mL and the pAFC50 is reported as 0.65.

On to `COc1ccc(/C=C(/C(N)=O)c2cc(OC)c(OC)c(OC)c2)cc1O`, for which, in the assay on Brontispa longissima [1], the AFC50 was 0.736 mg/mL and the pAFC50 stood at 0.13.

Regarding `COc1cc(/C=C\c2ccc([N+](=O)[O-])cc2[N+](=O)[O-])cc(OC)c1OC`, in the assay with Brontispa longissima [1], the AFC50 was 1.05 mg/mL and the pAFC50 is reported as -0.02. In addition, in the assay on Brontispa longissima [2], the Ratio is 5.

In the case of `COc1cc(/C=C\c2cc(Cl)cc(Cl)c2)cc(OC)c1OC`, in the assay with Brontispa longissima [1], the AFC50 was determined as 2.234 mg/mL and the pAFC50 is -0.35. For the same molecule, the Ratio with Brontispa longissima [2] came to 5.

For `COc1cc(/C=C\c2ccc(OC(C)=O)c(OC(C)=O)c2)cc(OC)c1OC`, in the assay with Brontispa longissima [1], the AFC50 stood at 1.918 mg/mL and the pAFC50 was -0.28.

As for `COc1cc(/C=C\c2ccc3c(c2)OCO3)cc(OC)c1OC`, in the assay on Brontispa longissima [1], the AFC50 turned out to be 0.731 mg/mL and the pAFC50 was 0.14.

On to `Oc1ccc(/C=C\c2ccccc2)cc1`, for which, in the assay on Brontispa longissima [1], the AFC50 came out at 1.161 mg/mL and the pAFC50 was -0.06.

With `COc1ccc(/C=C\c2ccc(OC(C)=O)cc2)cc1`, in the assay on Brontispa longissima [1], the AFC50 is 0.732 mg/mL and the pAFC50 is recorded as 0.14.

On to `Oc1ccc(/C=C\c2ccc(Cl)cc2)cc1`, for which, in the assay with Brontispa longissima [1], the AFC50 is 0.412 mg/mL and the pAFC50 stood at 0.39.

As for `COc1cc(/C=C\c2ccc(Cl)cc2)cc(OC)c1OC`, in the assay on Brontispa longissima [1], the AFC50 was found to be 1.634 mg/mL and the pAFC50 is given as -0.21.

Consider `COc1ccc(/C=C\c2cc(OC)c(OC)c(OC)c2)cc1`, for which, in the assay on Brontispa longissima [1], the AFC50 came to 0.327 mg/mL and the pAFC50 was 0.48.

With `COc1cc(/C=C\c2ccc([N+](=O)[O-])cc2)cc(OC)c1OC`, in the assay on Brontispa longissima [1], the AFC50 is 0.982 mg/mL and the pAFC50 stood at 0.01. In addition, in the assay with Brontispa longissima [2], the Ratio was determined as 3.

As for `COc1cc(/C=C\c2ccccc2)cc(OC)c1OC`, in the assay with Brontispa longissima [1], the AFC50 came out at 0.529 mg/mL and the pAFC50 is given as 0.28.

As to `COc1cc(/C=C\c2ccc(OC(C)=O)cc2)cc(OC)c1OC`, in the assay with Brontispa longissima [1], the AFC50 turned out to be 0.843 mg/mL and the pAFC50 was determined as 0.07. In addition, the Ratio in the assay on Brontispa longissima [2] turned out to be 3.

On to `COc1cc(/C=C\c2ccc(O)cc2)cc(OC)c1OC`, for which, in the assay on Brontispa longissima [1], the AFC50 is 1.261 mg/mL and the pAFC50 was -0.1.

Consider `COc1ccc(/C=C\c2cc(OC)c(OC)c(OC)c2)cc1O` [COMBRETASTATIN A4], for which, in the assay with Brontispa longissima [1], the AFC50 came out at 0.218 mg/mL and the pAFC50 worked out at 0.66.

Turning to `COc1ccc(/C=C/c2cc(OC)c(OC)c(OC)c2)cc1O` [E-COMBRETASTATIN A-4], in the assay with Brontispa longissima [1], the AFC50 came out at 0.357 mg/mL and the pAFC50 worked out at 0.45.

In the case of `Oc1ccc(/C=C/c2cc(O)cc(O)c2)cc1` [RESVERATROL], the AFC50 in the assay with Brontispa longissima [1] was 0.816 mg/mL.
